We go through 16 compounds from US20100150834A1, “HIGH AFFINITY EPHB RECEPTOR BINDING COMPOUNDS AND METHODS OF USE THEREOF” (priority 2006, published 2010).

The target in one series is T1, murine EphB4 (Mus musculus, UniProt P54761).
T1 construct: purchased R&D Systems 446-B4-200
T1 sequence (P54761 16-539 limits assumed): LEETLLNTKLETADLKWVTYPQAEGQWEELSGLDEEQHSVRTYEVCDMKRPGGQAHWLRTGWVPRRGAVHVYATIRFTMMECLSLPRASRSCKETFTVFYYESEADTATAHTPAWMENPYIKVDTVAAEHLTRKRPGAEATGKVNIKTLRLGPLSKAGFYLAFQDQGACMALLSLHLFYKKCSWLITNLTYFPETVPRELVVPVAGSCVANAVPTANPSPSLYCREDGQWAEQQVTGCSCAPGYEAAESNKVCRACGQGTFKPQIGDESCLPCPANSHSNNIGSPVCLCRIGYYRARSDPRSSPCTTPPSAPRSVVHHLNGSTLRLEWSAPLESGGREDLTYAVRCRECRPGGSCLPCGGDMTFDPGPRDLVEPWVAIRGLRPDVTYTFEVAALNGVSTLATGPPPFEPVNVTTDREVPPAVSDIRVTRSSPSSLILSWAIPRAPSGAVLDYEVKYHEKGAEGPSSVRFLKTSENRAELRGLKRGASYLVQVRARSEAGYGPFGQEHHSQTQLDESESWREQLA
The series can be described thus: Binding ELISA on immobilized murine EphB4-Fc, streptavidin-HRP detection (Table 3). Particulars: binding to murine EphB4; based on the estimated concentration of peptide-coupled PEG molecules; read-out: KD ± SE. How it is done:
The dissociation constants in Table 3 were measured in binding assays as described below. Reacti-bind Protein A coated strip plates were washed three times with the wash buffer TBST/Ca (TBS, 0.01% Tween, 1 mM CaCl2). Plates were coated with murine EphB4-Fc (reconstituted in PBS 200 μg/ml, diluted to 1 μg/ml in TBST/Ca) 100 μl/well for 1 hour at ambient temperature. The plates were washed four times with TBST/Ca. PEG-TNYL-RAW-biotin (made by The Burnham Institute, La Jolla, Calif.), obtained from the PEGylation reaction described in Example 2 supra, was added at different concentrations in TBST/Ca (100 μl/well) for 1 hour at ambient temperature. The plates were again washed four times with TBST/Ca. Streptavidin-HRP (1:2000) in 100 μl TBST/Ca was added for 1 hour at ambient temperature. The plates were again washed four times with TBST/Ca.

Series [1] concerns the target T2, murine EphB4/murine ephrin-B2 (Mus musculus, UniProt P54761).
T2 sequence (P54761 16-539 limits assumed): T1 sequence (P54761 16-539 limits assumed)
Description: Inhibition of murine EphB4-AP binding to immobilized murine ephrin-B2-Fc (Table 4). Particulars: based on the estimated concentration of peptide-coupled PEG molecules, No PEG control not biotinylated. As for the experimental part: The IC50 values in Table 4 were obtained from inhibition assays. […] Reati-bind Protein A coated strip plates were washed three times with wash buffer TBST/Ca. Plates were coated with murine ephrin-B2-Fc (reconstituted in PBS 200 μg/ml, diluted to 1 μg/ml with TBST/Ca) 100 μl/well for 1 h at ambient temperature. The control used was Human-Fc (1 μg/ml; 100 μl/well); Human-Fc is the control for ephrin-B2-Fc, which contains the extracellular domain of ephrin-B2 fused to the Fc portion of human IgG1. The plates were washed four times with TBST/Ca. For each well was added: PEG-TNYL-RAW-biotin, from PEGylation reaction in Example 2, supra, at different concentrations; 10 μl murine EphB4-Alkaline Phosphatase (EphB4-AP); and TBST/Ca to 50 μl. Plates were incubates for 3 hours at ambient temperature, then washed four times with TBST/Ca. Substrate, 1 mg/ml PNPP in SEAP buffer, was added in the amount of 100 μl/well. (2×SEAP buffer (pH=9.8) was prepared by: adding 2.1 ml diethanolamine and 10 μl 1M MgCl2 to 10 ml (total) water; adjusting pH to 9.8; wrapping in foil and storing at ambient temperature; and diluting with water to 1× on day of use). Optical density analysis (OD405) was performed using a plate reader to determine the extent to which PEG-TNYL-RAW-biotin inhibits the EphB4-ephrin-B2 interaction. […]

The target in another series is T3, EphB4 (Mus musculus, UniProt P54761).
T3 sequence (P54761 16-987): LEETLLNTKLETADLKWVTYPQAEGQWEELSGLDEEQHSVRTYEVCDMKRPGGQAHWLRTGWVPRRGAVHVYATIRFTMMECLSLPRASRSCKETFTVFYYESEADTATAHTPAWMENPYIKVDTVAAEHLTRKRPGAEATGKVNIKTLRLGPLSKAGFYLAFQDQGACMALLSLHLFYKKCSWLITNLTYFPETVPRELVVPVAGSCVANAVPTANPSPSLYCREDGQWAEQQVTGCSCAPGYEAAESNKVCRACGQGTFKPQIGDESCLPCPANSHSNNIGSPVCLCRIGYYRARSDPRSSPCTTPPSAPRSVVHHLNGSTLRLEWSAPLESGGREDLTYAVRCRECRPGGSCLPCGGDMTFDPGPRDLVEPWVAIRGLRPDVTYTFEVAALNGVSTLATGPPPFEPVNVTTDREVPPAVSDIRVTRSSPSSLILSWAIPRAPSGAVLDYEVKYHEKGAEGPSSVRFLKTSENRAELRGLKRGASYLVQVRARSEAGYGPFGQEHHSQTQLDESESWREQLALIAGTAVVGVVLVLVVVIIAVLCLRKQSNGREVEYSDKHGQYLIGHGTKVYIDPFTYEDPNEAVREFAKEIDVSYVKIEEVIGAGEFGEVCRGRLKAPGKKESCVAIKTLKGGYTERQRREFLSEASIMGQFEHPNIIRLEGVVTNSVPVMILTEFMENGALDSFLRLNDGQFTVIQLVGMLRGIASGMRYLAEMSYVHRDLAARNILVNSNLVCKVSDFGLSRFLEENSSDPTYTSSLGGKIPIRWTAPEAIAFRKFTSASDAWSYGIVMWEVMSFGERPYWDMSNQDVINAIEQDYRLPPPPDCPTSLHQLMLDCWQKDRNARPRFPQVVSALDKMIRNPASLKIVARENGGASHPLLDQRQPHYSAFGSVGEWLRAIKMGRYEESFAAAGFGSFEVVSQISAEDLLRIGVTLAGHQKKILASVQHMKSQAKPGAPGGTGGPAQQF
The series can be described thus: EphB receptor specificity (% binding), Table 1. The following applies: binding to EphB4.

The subject of series [2] is EphB1. The series can be described thus: EphB receptor specificity (% binding), Table 1. Particulars: binding to EphB1.
In series [3] the target is T4, EphB1 (Homo sapiens, UniProt P54762).
T4 sequence (P54762 18-540 limits assumed): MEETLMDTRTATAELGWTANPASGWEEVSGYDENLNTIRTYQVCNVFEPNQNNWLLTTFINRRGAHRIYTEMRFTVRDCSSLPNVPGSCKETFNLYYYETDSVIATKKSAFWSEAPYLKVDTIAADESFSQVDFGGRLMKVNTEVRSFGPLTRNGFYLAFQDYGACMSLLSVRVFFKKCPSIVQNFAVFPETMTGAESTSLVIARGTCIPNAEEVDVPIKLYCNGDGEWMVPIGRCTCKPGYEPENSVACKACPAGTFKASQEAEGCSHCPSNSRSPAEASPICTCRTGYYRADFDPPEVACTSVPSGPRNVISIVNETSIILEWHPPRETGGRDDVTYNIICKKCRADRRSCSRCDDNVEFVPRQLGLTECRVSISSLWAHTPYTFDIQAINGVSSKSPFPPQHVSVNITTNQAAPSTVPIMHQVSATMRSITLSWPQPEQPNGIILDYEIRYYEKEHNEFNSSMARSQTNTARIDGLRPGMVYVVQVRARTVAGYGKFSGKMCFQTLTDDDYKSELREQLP
Description: Inhibition of ephrin-B2 AP binding by peptides panned on EphB1 (Table 1).

In a further series the target is EphB2 (Homo sapiens, UniProt P29323). Description: EphB receptor specificity (% binding), Table 1. The following applies: binding to EphB2.

Read-outs that look alike come from different tables or passages of the source. No end group written: not given here.

Chain of EphB2 (P29323 19-1055): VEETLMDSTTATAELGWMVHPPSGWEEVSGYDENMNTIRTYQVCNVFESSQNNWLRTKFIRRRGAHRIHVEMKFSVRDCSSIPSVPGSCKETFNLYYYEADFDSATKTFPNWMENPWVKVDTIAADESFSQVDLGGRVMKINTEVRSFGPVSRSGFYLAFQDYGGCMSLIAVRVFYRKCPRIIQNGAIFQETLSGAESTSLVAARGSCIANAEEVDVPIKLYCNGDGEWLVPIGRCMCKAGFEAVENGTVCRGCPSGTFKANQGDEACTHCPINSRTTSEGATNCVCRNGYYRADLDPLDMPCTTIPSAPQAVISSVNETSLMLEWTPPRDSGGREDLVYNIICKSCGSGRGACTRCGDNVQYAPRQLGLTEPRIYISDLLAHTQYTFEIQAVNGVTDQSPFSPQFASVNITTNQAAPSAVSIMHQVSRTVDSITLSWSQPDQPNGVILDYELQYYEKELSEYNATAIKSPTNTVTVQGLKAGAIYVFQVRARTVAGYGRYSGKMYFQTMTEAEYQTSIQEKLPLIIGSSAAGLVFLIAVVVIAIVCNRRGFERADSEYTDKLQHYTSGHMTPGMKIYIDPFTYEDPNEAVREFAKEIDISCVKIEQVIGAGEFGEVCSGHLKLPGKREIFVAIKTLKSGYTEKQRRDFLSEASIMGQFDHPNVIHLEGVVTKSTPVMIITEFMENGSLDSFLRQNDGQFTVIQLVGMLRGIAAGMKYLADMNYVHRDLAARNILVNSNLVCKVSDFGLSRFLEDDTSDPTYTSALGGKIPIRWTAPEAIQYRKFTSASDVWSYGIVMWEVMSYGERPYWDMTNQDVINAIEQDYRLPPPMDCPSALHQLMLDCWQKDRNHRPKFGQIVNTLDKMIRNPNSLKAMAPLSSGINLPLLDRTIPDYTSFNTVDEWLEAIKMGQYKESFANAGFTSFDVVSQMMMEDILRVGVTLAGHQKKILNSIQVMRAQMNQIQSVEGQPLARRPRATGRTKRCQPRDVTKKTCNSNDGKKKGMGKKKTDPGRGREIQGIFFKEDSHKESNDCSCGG

Turning to “3.4 Kd (dimer): two TNYL-RAW peptides (with biotin) conjugated to a 3.4 kDa bifunctional PEG (SMB-PEG-SMB) (TNYLFSPNGPIARAW; also: biotin, position not given here, dimer: two peptides joined by 3.4 kDa bifunctional PEG (SMB-PEG-SMB))”, the Kd in the series with murine EphB4 is 0.9 ± 0.3 nM.
“10 Kd (dimer): two TNYL-RAW peptides (with biotin) conjugated to a 10 kDa bifunctional PEG (SMB-PEG-SMB) (TNYLFSPNGPIARAW; also: biotin, position not given here, dimer: two peptides joined by 10 kDa bifunctional PEG (SMB-PEG-SMB))”: in series [1], the 50% inhibitory concentration (IC50) is 9 ± 2 nM. In addition, the Kd with murine EphB4 was 0.9 ± 0.2 nM.
For the compound “35 (SGHQLLNKMPN; EphB4-binding peptide) [compound 35]”, the “EphB Receptor Specificity (% Binding) B4” value with EphB4 was 100%.
As for `CC[C@H](C)[C@H](NC(=O)[C@H](C)NC(=O)[C@H](Cc1ccccc1)NC(=O)[C@@H]1CCCN1C(=O)[C@H](CCC(=O)O)NC(=O)[C@@H](NC(=O)[C@@H](NC(=O)[C@H](Cc1c[nH]c2ccccc12)NC(=O)[C@H](Cc1c[nH]cn1)NC(=O)[C@@H](N)Cc1c[nH]c2ccccc12)[C@@H](C)O)[C@@H](C)CC)C(=O)N[C@H](C(=O)N[C@@H](CO)C(=O)O)[C@@H](C)O` [compound 8], the “EphB Receptor Specificity (% Binding) B1” value in the series on EphB1 [2] came out at 99%.
As for `CC[C@H](C)[C@H](NC(=O)[C@H](CCCNC(=N)N)NC(=O)[C@H](Cc1c[nH]c2ccccc12)NC(=O)[C@H](Cc1c[nH]cn1)NC(=O)[C@@H](N)CC(=O)O)C(=O)N[C@@H](CC(C)C)C(=O)N1CCC[C@H]1C(=O)N[C@@H](Cc1ccccc1)C(=O)N[C@@H](CO)C(=O)N[C@@H](CC(C)C)C(=O)N[C@@H](CO)C(=O)N[C@@H](CO)C(=O)O` [compound 10], the “EphB Receptor Specificity (% Binding) B1” value in the series with EphB1 [2] is on record as 53%.
Turning to `CC[C@H](C)[C@H](NC(=O)[C@@H]1CCCN1C(=O)[C@H](Cc1c[nH]c2ccccc12)NC(=O)[C@H](Cc1c[nH]cn1)NC(=O)[C@@H](N)CO)C(=O)N[C@@H](CO)C(=O)N1CCC[C@H]1C(=O)N[C@@H](Cc1ccc(O)cc1)C(=O)N[C@@H](CO)C(=O)N[C@@H](CC(C)C)C(=O)N[C@@H](CC(C)C)C(=O)N[C@@H](CO)C(=O)O` [compound 14], in the series on EphB1 [2], the “EphB Receptor Specificity (% Binding) B1” value turned out to be 39%.
Regarding `CC(C)C[C@H](NC(=O)[C@H](C)NC(=O)[C@@H](N)CC(=O)O)C(=O)N[C@@H](CC(N)=O)C(=O)N[C@@H](CC(=O)O)C(=O)N[C@@H](Cc1c[nH]c2ccccc12)C(=O)N[C@@H](CC(C)C)C(=O)N[C@@H](CC(C)C)C(=O)N[C@@H](Cc1ccccc1)C(=O)N[C@@H](CCCNC(=N)N)C(=O)N1CCC[C@H]1C(=O)N[C@@H](Cc1c[nH]c2ccccc12)C(=O)O` [compound 20], the “EphB Receptor Specificity (% Binding) B1” value in the series with EphB1 [2] is on record as 0%.
Turning to `CC[C@H](C)[C@H](NC(=O)[C@@H]1CCCN1C(=O)CNC(=O)[C@H](CC(N)=O)NC(=O)[C@@H]1CCCN1C(=O)[C@H](CO)NC(=O)[C@H](Cc1ccccc1)NC(=O)[C@H](CC(C)C)NC(=O)[C@H](Cc1ccc(O)cc1)NC(=O)[C@H](CC(N)=O)NC(=O)[C@@H](N)[C@@H](C)O)C(=O)N[C@@H](C)C(=O)O` [compound 24], in the series with EphB1 [2], the “EphB Receptor Specificity (% Binding) B1” value was 5%.
On the same count and under the same terms, the result for `CC[C@H](C)[C@H](NC(=O)[C@@H](NC(=O)[C@@H]1CCCN1C(=O)[C@@H](N)CC(N)=O)C(C)C)C(=O)NCC(=O)N1CCC[C@H]1C(=O)N[C@H](C(=O)N[C@@H](CCC(N)=O)C(=O)N[C@@H](CCCNC(=N)N)C(=O)N[C@@H](C)C(=O)N[C@@H](Cc1c[nH]c2ccccc12)C(=O)N[C@H](C(=O)O)[C@@H](C)O)[C@@H](C)CC` [compound 27] reads 1%.
Consider AHTFPYPHPKPH [compound 3], for which the “EphB Receptor Specificity (% Binding) B1” value in the series with EphB1 [2] was 100%. This compound also yielded an IC50 at EphB1 [3] of roughly 150000 nM. For the same compound, the “EphB Receptor Specificity (% Binding) B2” value on EphB2 was determined as 4%.
As for DHNHNLYNPWRL [compound 21], the “EphB Receptor Specificity (% Binding) B1” value with EphB1 [2] amounted to 9%. In addition, on EphB2, the “EphB Receptor Specificity (% Binding) B2” value is listed as 8%.
In turn, EWLSPNLAPSVR [compound 1] had an IC50 at EphB1 [3] (panning receptor EphB1) of roughly 10000 nM. On EphB2, the “EphB Receptor Specificity (% Binding) B2” value is reported as 2%.
On to EWYMKFPPEHYF [compound 19], for which the “EphB Receptor Specificity (% Binding) B1” value in the series on EphB1 [2] worked out at 22%.
For the compound FSPQGPAARNFA [compound 25], in the series on EphB1 [2], the “EphB Receptor Specificity (% Binding) B1” value was found to be 13%.
Take TNYLFSPNGPIARAW [TNYL-RAW]: where the note is “cell conditioned medium in the absence of the cells (FIG. 3C)”, the “stability in cell conditioned medium” value is given as “rapidly lost”. Further, the “stability in cell culture medium with PC3 cells” value (medium replaced with fresh medium just before adding the peptide (FIG. 3B)) was “remained intact for several hours”. Further, the “stability in cell conditioned medium with protease inhibitors” value (mixture of protease inhibitors (aprotinin, PMSF, leupeptin, pepstatin) added to conditioned medium (FIG. 3D)) is listed as “reduce peptide instability”.
On to TYFDFQAWSIRA [compound 22], for which the “EphB Receptor Specificity (% Binding) B1” value in the series with EphB1 [2] amounted to 10%.
